Measurements published in patent US8048825B2, “Haloalkylsulfonanilide derivatives or salt thereof, herbicide comprising the derivatives as active ingredient, and use of the herbicide” (Nihon Nohyaku Co., Ltd., priority 2006, dated 2011).

Experiments:
Scirpus juncoides [1] = assay: Herbicidal efficacy on paddy field weeds of pre-emergence stage (Pre), Test Example 1; format: in vivo; settings: 1000 g/ha as active ingredient, examined after 21 days
Outline: (§1)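 Pre-emergence paddy test: 1000 g/ha active ingredient, formulated and water-diluted, dropped onto 5 cm floodwater one day after sowing both weeds in clay loam. After 21 days in greenhouse, inhibition relative to untreated control rated on 0 (0%) to 5 (100%) scale.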

Lindernia procumbens = assay: as above; format: in vivo; settings: 1000 g/ha as active ingredient, examined after 21 days
Outline: as §1

Scirpus juncoides [2] = assay: Herbicidal effect on paddy field weeds of post-emergence stage (Post), Test Example 2; format: in vivo; settings: one-leaf stage, 1000 g/ha as active ingredient, examined after 21 days
Outline: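 Post-emergence paddy test: formulated compound added to 5 cm standing water at 1000 g/ha a.i. when weeds reached one-leaf stage in clay loam pots in greenhouse. Growth inhibition rated 21 days later versus untreated control on a 0 (0%) to 5 (100%) scale.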

[3] = tested on: transplanted paddy-rice (rice species: Nihonbare); assay: Test of phytotoxicity on transplanted paddy-rice, Test Example 3; format: in vivo; settings: two-leaf stage seedlings, 1000 g/ha as active ingredient, applied 5 days after transplantation, examined after 21 days
Description: Criteria for herbicidal efficacy (growth inhibiting degree) and phytotoxicity. • 5 . . . 100% herbicidal effect, phytotoxicity. • 4 . . . 90%-99% herbicidal effect, phytotoxicity. • 3 . . . 70%-89% herbicidal effect, phytotoxicity. • 2 . . . 40%-69% herbicidal effect, phytotoxicity. • 1 . . . 1%-39% herbicidal effect, phytotoxicity. • 0 . . . 0% herbicidal effect, phytotoxicity.
75 cm^2 plastic pots were filled with the soil (clay loam) and filled with water depth of 5 cm and 2 rice plant seedlings (rice species: Nihonbare) at two-leaf stage were transplanted therein. They were brought up in a greenhouse and, after five days from the transplantation, predetermined effective dosage (1000 g/ha in terms of active ingredient) of formulations comprising a compound of the present invention as an active ingredient was applied to the pot water. Then, they were brought up in a greenhouse and the phytotoxicity was examined after 21 days from the treatment by comparing with the result of an untreated group according to the criteria of Test Example 1. In the table, “-” means that the test was not performed.

In the case of `CC1(C)COC(=S)N(Cc2ccccc2NS(=O)(=O)C(F)(F)F)C1` [Compound No. 1-34, 5,5-dimethyl-3-[2-(trifluoromethanesulfonylamino)benzyl]-[1,3]-oxazinan-2-thione], the “Scirpus juncoides pre (herbicidal effect)” value (“Scirpus juncoides pre” for short) (Scirpus juncoides [1]) is reported as 4 (90%-99% herbicidal effect, phytotoxicity), the “Lindernia procumbens pre (herbicidal effect)” value (“Lindernia procumbens pre” for short) (Lindernia procumbens) is reported as 4 (90%-99% herbicidal effect, phytotoxicity) and the melting point is reported as 129.9 °C. For the same compound, the “Scirpus juncoides post (herbicidal effect)” value (shortened to “Scirpus juncoides post”) (Scirpus juncoides [2]) was 4 (90%-99% herbicidal effect, phytotoxicity).
For `CC(C)COC(=O)N(c1ccccc1CN1CCC(C)COC1=O)S(=O)(=O)C(F)(F)F` (centres unmarked) [Compound No. 2-28, 3-(2-[N-(isobutoxycarbonyl)-N-(trifluoromethanesulfonyl)amino]benzyl)-6-methyl-[1,3]-oxazepan-2-one], the “Scirpus juncoides pre” value (Scirpus juncoides [1]) was 4 (90%-99% herbicidal effect, phytotoxicity), the “Lindernia procumbens pre” value (Lindernia procumbens) was 4 (90%-99% herbicidal effect, phytotoxicity) and the “Rice (phytotoxicity)” value [3] was 3 (70%-89% herbicidal effect, phytotoxicity). The “Scirpus juncoides post” value (Scirpus juncoides [2]) was 4 (90%-99% herbicidal effect, phytotoxicity).
For `COC(=O)N(c1ccccc1CN1CC(C)(C)COC1=S)S(=O)(=O)C(F)(F)F` [Compound No. 1-35, 5,5-dimethyl-3-(2-[N-(methoxycarbonyl)-N-(trifluoromethanesulfonyl)amino]benzyl)-[1,3]-oxazinane-2-thione], the “Scirpus juncoides pre” value (Scirpus juncoides [1]) was 4 (90%-99% herbicidal effect, phytotoxicity), the “Lindernia procumbens pre” value (Lindernia procumbens) was 4 (90%-99% herbicidal effect, phytotoxicity) and the “Rice (phytotoxicity)” value [3] was 2 (40%-69% herbicidal effect, phytotoxicity). The “Scirpus juncoides post” value (Scirpus juncoides [2]) was 4 (90%-99% herbicidal effect, phytotoxicity).
Work on `CCOCN(c1ccccc1CN1CCC(c2ccccc2)OC1=O)S(=O)(=O)C(F)(F)F` (centres unmarked) [Compound No. 1-248, 6-phenyl-3-{2-[N-(ethoxymethyl)-N-(trifluoromethanesulfonyl)amino]benzyl)-[1,3]-oxazinan-2-one] yielded a melting point of 115.6 °C.
With `O=C1OC(c2ccccc2)CCN1Cc1ccccc1NS(=O)(=O)C(F)(F)F` (centres unmarked) [Compound No. 1-239, 6-phenyl-3-[2-(trifluoromethanesulfonylamino)benzyl]-[1,3]-oxazinan-2-one] the “Lindernia procumbens pre” value (Lindernia procumbens) was 5 (100% herbicidal effect, phytotoxicity), the melting point was 152 °C and the “Scirpus juncoides post” value (Scirpus juncoides [2]) was 4 (90%-99% herbicidal effect, phytotoxicity).
With `CCCOC(=O)N(c1ccccc1CN1CCCOC1=O)S(=O)(=O)C(F)(F)F` [Compound No. 1-4, 3-{2-[N-(propoxycarbonyl)-N -(trifluoromethanesulfonyl)amino]benzyl)-[1,3]-oxazinan-2-one] the “Scirpus juncoides pre” value (Scirpus juncoides [1]) was 4 (90%-99% herbicidal effect, phytotoxicity), the “Lindernia procumbens pre” value (Lindernia procumbens) was 4 (90%-99% herbicidal effect, phytotoxicity) and the “Rice (phytotoxicity)” value [3] was 3 (70%-89% herbicidal effect, phytotoxicity). For the same compound, the “Scirpus juncoides post” value (Scirpus juncoides [2]) was 4 (90%-99% herbicidal effect, phytotoxicity).
